Results reported in ChEMBL document CHEMBL5576044, “Inhibition of kynurenine production by N,O-substituted hydroxylamine derivatives” (Bioorg Med Chem Lett, 2024).
Calls of active or inactive are those of the source. The rule behind the calls is not given here.

Tests used:
[1] = Inhibition of kynurenine production in human SK-OV-3 cells; type: functional, cell-based
[2] = target: Indoleamine 2,3-dioxygenase 1 (Homo sapiens) (UniProt P14902); experiment: Inhibition of recombinant human IDO1 at 10 ug/ml relative to control; details: dose 10.0 µg/ml
Sequence of Indoleamine 2,3-dioxygenase 1 (Homo sapiens) (P14902 whole entry, looked up): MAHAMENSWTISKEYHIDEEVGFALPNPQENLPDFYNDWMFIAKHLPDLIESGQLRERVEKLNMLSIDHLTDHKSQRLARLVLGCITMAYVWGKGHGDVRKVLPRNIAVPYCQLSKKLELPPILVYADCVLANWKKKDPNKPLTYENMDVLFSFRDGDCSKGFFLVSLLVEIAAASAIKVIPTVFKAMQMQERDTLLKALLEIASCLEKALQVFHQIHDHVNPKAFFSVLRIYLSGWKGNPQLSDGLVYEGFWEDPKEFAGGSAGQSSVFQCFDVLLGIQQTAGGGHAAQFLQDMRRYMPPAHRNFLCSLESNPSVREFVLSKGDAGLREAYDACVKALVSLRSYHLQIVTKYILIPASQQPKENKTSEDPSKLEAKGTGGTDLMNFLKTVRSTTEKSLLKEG

[3] = Cytotoxicity against human SK-OV-3 cells; type: toxicity, cell-based
[4] = target: Signal transducer and activator of transcription 3 (Homo sapiens) (UniProt P40763); experiment: Inhibition of STAT3 phosphorylation in IFN-gamma activated human A549 cells at 5 to 40 microg/ml by Western blotting analysis; type: cell-based; details: dose 5-40 µg/ml
Sequence of Signal transducer and activator of transcription 3 (Homo sapiens) (P40763 whole entry): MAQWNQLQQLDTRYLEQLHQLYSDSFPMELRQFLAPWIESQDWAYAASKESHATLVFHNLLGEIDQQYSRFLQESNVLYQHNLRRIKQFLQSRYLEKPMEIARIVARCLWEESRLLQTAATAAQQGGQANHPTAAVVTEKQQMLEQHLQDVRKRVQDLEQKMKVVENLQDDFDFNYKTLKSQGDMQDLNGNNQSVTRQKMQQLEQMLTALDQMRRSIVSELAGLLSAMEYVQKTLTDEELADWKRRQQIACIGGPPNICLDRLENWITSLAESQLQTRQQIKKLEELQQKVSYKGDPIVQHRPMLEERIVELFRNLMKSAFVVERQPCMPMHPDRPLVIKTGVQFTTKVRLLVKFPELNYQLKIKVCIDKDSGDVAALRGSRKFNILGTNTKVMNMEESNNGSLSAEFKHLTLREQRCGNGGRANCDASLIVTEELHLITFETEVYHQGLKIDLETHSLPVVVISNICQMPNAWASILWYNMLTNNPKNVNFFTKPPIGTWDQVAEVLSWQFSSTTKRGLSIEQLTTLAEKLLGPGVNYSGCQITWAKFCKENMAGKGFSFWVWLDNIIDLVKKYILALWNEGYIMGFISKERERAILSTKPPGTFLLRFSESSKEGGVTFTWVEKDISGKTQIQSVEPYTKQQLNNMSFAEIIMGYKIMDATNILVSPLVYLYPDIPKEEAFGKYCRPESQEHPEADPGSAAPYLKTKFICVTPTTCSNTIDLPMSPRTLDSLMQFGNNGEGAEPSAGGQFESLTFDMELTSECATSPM

A549 = experiment: Reduction in IFN-gamma activated IDO1 expression level in human A549 cells at 1.25 to 40 microg/ml by Western blotting analysis; type: functional, cell-based; details: dose 1.25-40 µg/ml
[5] = target: Indoleamine 2,3-dioxygenase 1 (Homo sapiens) (UniProt P14902); experiment: Inhibition of IDO1 in human SK-OV-3 cells; type: cell-based
[6] = Drug degradation in human SK-OV-3 cell culture supernatant; type: ADME, cell-based
[7] = Drug metabolism in human SK-OV-3 cell culture supernatant assessed as O-benzylhydroxylamine Hydrochloride formation after 24 hrs; type: ADME, cell-based; details: sk-ov-3, 24 h
[8] = Drug concentration in C57BL/6 mouse serum at 100 mg per mouse administered via oral dosing after 2 hrs by LC-MS analysis; type: ADME; details: read-out: Drug uptake
[9] = Drug metabolism in human SK-OV-3 cell culture supernatant assessed as O-4-nitrobenzyl hydroxylamine Hydrochloride formation after 24 hrs; type: ADME, cell-based; details: sk-ov-3, 24 h
Mus musculus [10] = experiment: In vivo inhibition of kynurenine production in C57BL/6 mouse serum at 200 mg per mouse administered via ip and measured after 2 hrs by LC-MS analysis; type: functional, organism-based
Mus musculus [11] = experiment: In vivo inhibition of kynurenine production in C57BL/6 mouse serum at 200 mg per mouse administered via oral dosing and measured after 2 hrs by LC-MS analysis; type: functional, organism-based
[12] = Drug concentration in C57BL/6 mouse serum at 200 mg per mouse administered via ip after 2 hrs by LC-MS analysis; type: ADME, organism-based; details: read-out: Drug uptake
[13] = Drug concentration in C57BL/6 mouse serum at 200 mg per mouse administered via oral dosing after 2 hrs by LC-MS analysis; type: ADME; details: read-out: Drug uptake
[14] = Drug metabolism in C57BL/6 mouse serum at 200 mg per mouse administered via IP measured after 2 hrs by LC-MS analysis; type: ADME
[15] = Drug metabolism in C57BL/6 mouse serum at 200 mg per mouse administered via oral dosing measured after 2 hrs by LC-MS analysis; type: ADME
Mus musculus [16] = experiment: In vivo inhibition of kynurenine production in iv dosed mouse serum by LC/MS analysis; type: functional, organism-based
[17] = Stability in mouse serum after 1 hr; type: ADME
[18] = Drug metabolism in mouse serum assessed as N-Cbz-L-alanine formation after 1 hr; type: ADME, cell-free
Mus musculus [19] = experiment: In vivo inhibition of kynurenine production in C57BL/6 mouse serum at 100 mg per mouse administered via oral dosing and measured after 2 hrs by LC-MS analysis; type: functional, organism-based

IC50 [1] [µM] | inhibition [2] [%] | inhibition [5] | SMILES | IC50 [3] [µM] | also measured
> 100 | 7.9 | – | CC12CC3CC(C)(C1)CC(C(=O)NOCc1ccccc1)(C3)C2 | > 100 | –
5.5 | 0 | – | N[C@@H](CO)C(=O)NOCc1ccccc1 | > 100 | –
12 | 4.9 | – | O=C(N[C@@H](Cc1c[nH]c2ccccc12)C(=O)NOCc1ccccc1)OCc1ccccc1 | > 100 | –
> 100 | -5.5 | – | O=C(N[C@@H](CO)C(=O)O)OCc1ccccc1 | > 100 | –
4.6 | 10 | Active | O=C(N[C@@H](CO)C(=O)NOCc1ccccc1)OCc1ccccc1 | > 100 | inhibition [4]: inactive; Activity (A549): inactive
8 | 100 | Active | Cl.NOCc1ccc([N+](=O)[O-])cc1 | > 100 | Stability [6]: Unstable
24 | 9 | inactive | O=C(NOCc1ccc([N+](=O)[O-])cc1)[C@H](O)c1ccccc1 | > 100 | –
5.1 | 5.6 | – | O=C(N[C@H](CO)C(=O)NOCc1ccccc1)OCc1ccccc1 | > 100 | Drug metabolism [7]: Metabolite_Detected
> 100 | 2.9 | – | O=C(N[C@@H](CO)C(=O)Nc1ccccc1O)OCc1ccccc1 | > 100 | –
– | – | – | NS(=O)(=O)NCCNc1nonc1C(=NO)Nc1ccc(F)c(Br)c1 [EPACADOSTAT] | – | concentration at 2 h [8]: 1400 nM
5.5 | -9.2 | Active | O=C(N[C@@H](CO)C(=O)NOCc1ccc([N+](=O)[O-])cc1)OCc1ccccc1 | > 100 | Drug metabolism [9]: Metabolite_Detected
17 | 12 | inactive | O=C(NOCc1ccc([N+](=O)[O-])cc1)C12CC3CC(CC(C3)C1)C2 | > 100 | inhibition (Mus musculus [10]): inactive; inhibition (Mus musculus [11]): inactive; concentration at 2 h [12]: 18 nM; concentration at 2 h [13]: 3 nM; Drug metabolism [14]: Metabolite_Detected; Drug metabolism [15]: Metabolite_Detected; Stability [6]: Stable
5.2 | -9.4 | – | C[C@H](NC(=O)OCc1ccccc1)C(=O)NOCc1ccccc1 | > 100 | inhibition (Mus musculus [16]): inactive; Stability [17]: Unstable; Drug metabolism [18]: Metabolite_Detected
> 100 | -3.3 | – | O=C(NOCc1ccc([N+](=O)[O-])cc1)C12CC3CC(CC(O)(C3)C1)C2 | > 100 | –
> 100 | 0.19 | – | O=[N+]([O-])c1ccc(CONS(=O)(=O)Cc2ccccc2)cc1 | > 100 | –
> 100 | -8.3 | – | CONC(=O)[C@H](CO)NC(=O)OCc1ccccc1 | > 100 | –
– | – | – | NS(=O)(=O)NCCNc1nonc1/C(=N/O)Nc1ccc(F)c(Br)c1 | – | inhibition (Mus musculus [19]): Active
> 100 | -5.1 | – | O=C(N[C@@H](CO)C(=O)NCCc1ccccc1)OCc1ccccc1 | > 100 | –
10 | 100 | Active | NOCc1ccccc1 | > 100 | –
